Source: patent US20250360145A1, “CSF-1R INHIBITORS AND USES THEREOF” (Myrobalan Therapeutics, Inc., priority 2022, published 2025)
Where two headings read alike, the source gives them in different places.

Assays:
[1] = tested on: Ba/F3_CSF-1R (stably expressing human CSF-1R kinase); assay: Cell proliferation assay, Ba/F3_CSF-1R; assay type: cell-based
EOC2 cell = assay: Cell proliferation assay, EOC2; assay type: cell-based, mouse
CSF-1R = CSF-1R (Homo sapiens (Human), UniProt P07333); assay: Biochemical HTRF kinase assay, CSF-1R; conditions: Table 2; recombinant human CSF-1R;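 also: enzyme incubated with inhibitor plus a substrate and ATP mix for one hour at room temperature before HTRF detection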
[2] = BaF3, 72 h, Ba/F3_CSF-1R cells, 72 hours treatment, read-out: CSF-1R BaF3 EC50
[3] = Mus musculus, 72 h, EOC2 cells, 72 hours treatment, read-out: ECO2 EC50
[4] = BaF3, 72 h, read-out: CSF-1R BaF3 EC50 (nM)
[5] = Mus musculus, 72 h, read-out: ECO2 EC50 (nM)

CSF-1R, sequence (P07333 20-972): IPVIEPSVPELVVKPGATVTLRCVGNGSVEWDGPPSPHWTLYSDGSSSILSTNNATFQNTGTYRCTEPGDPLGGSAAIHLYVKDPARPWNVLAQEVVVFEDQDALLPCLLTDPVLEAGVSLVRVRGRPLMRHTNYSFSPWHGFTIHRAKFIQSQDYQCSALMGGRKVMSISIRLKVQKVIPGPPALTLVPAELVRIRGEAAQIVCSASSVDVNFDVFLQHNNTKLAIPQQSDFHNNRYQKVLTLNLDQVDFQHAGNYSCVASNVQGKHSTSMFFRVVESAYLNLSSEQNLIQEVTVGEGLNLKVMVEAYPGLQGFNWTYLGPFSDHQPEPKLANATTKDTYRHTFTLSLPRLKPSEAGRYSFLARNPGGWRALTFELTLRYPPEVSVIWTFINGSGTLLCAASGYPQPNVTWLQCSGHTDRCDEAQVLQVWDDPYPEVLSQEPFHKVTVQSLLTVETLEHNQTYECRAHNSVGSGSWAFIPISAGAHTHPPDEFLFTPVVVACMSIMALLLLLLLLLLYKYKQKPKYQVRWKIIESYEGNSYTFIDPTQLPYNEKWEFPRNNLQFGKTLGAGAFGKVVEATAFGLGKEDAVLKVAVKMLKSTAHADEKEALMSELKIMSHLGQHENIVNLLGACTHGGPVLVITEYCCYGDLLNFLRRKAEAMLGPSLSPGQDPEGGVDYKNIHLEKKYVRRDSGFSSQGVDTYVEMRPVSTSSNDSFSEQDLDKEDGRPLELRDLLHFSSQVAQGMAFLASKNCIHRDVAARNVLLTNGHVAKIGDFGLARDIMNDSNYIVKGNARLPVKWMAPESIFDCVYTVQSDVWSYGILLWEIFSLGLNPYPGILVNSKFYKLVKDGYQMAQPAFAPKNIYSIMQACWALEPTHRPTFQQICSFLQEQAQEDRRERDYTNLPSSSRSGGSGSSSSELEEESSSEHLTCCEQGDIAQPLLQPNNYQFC

Row | SMILES | EC50 [1, 2] | EC50 (EOC2 cell; [3]) | IC50 (CSF-1R) | EC50 [1, 4] | EC50 (EOC2 cell; [5]) | EC50 ([1]; Ba/F3_CSF-1R cells, 72 hours treatment, read-out: CSF-1R BaF3 EC50) | EC50 (EOC2 cell; EOC2 cells, 72 hours treatment, read-out: ECO2 EC50)
1 | COc1ccc(COc2ncc(Cc3ccnc4cc(C5CC5)cnc34)cc2OC)nc1 [Example 137] | 46.7 nM | 65 nM |  |  |  |  | 
2 | COc1cnc2c(Cc3cnc(OCc4cc5cccnc5[nH]4)c(OC)c3)ccnc2c1 [Example 149] | 61.6 nM | 91.2 nM | 3.9 nM |  |  |  | 
3 | COc1cnc(COc2ccc(Cc3ccnc4cc(OC)ccc34)cc2OC)nc1 [Example 40] | > 1000 nM | 956 nM | 93.7 nM |  |  |  | 
4 | COc1cnc2c(Cc3ccc4nc(N5CCC(OC)CC5)cnc4c3)ccnc2c1 [Example 153, 3-methoxy-8-[[2-(4-methoxy-1-piperidyl)quinoxalin-6-yl]methyl]-1,5-naphthyridine] | > 1000 nM | > 1000 nM |  |  |  |  | 
5 | COc1ccc(COc2ncc(Cc3ccnc4cc(Cl)cnc34)cc2OC)nc1 [Example 62, 3-chloro-8-((5-methoxy-6-((5-methoxypyridin-2-yl)methoxy)pyridin-3-yl)methyl)-1,5-naphthyridine] |  |  |  | 177 nM | 496 nM |  | 
6 | COc1ccc2c(Cc3ccc(OCc4cccnc4)c(OC)c3)ccnc2c1 [Example 8] | 546 nM |  |  |  |  |  | 
7 | COc1ccc(COc2ccc(Cc3ccnc4cc(OC)ccc34)cc2OC)cc1 [Example 1] | 42.6 nM | 42 nM |  |  |  |  | 
8 | COc1cnc2c(Cc3cnc(OCc4cc(C(C)OC)n(C)n4)c(OC)c3)ccnc2c1 (centres unmarked) [Example 102] | 134 nM | 77 nM | 4 nM |  |  |  | 
9 | COc1ccc2c(Cc3ccc(OCc4cn5ccccc5n4)c(OC)c3)ccnc2c1 [Example 18, 4-(4-(imidazo[1,2-a]pyridin-2-ylmethoxy)-3-methoxybenzyl)-7-methoxy quinoline] | 196 nM | 272 nM | 9.4 nM |  |  |  | 
10 | COc1cnc2c(Cc3ccc4nc(C5CCOCC5)cnc4c3)ccnc2c1 [Example 157] | > 1000 nM | > 1000 nM | 543 nM |  |  |  | 
11 | COc1ccc2c(Cc3ccc(OCc4ccn(C)c(=O)c4)c(OC)c3)ccnc2c1 [Example 25] | 583 nM |  | 40 nM |  |  |  | 
12 | COc1cnc2c(Cc3cnc(OCc4nc(C)no4)c(OC)c3)ccnc2c1 [Example 70] | > 1000 nM | > 1000 nM | 272 nM |  |  |  | 
13 | COc1ccc(COc2ncc(Cc3ccnc4cc(-n5cc(C)cn5)cnc34)cc2OC)nc1 [Example 142] | 7.3 nM | 4.8 nM | 13.8 nM |  |  |  | 
14 | COc1ccc(COc2ncc(Cc3ccnc4cc(N5CC6CC(C5)O6)cnc34)cc2OC)nc1 [Example 131] | 9.9 nM | 6.7 nM |  |  |  |  | 
15 | COc1ccc2c(Cc3ccc(OCc4cccc(C(F)(F)F)c4)c(OC)c3)ccnc2c1 [Example 27] | 207 nM |  | 117 nM |  |  |  | 
16 | COc1cnc2c(Cc3cnc(OCc4cc(C(F)(F)F)n(C)n4)c(OC)c3)ccnc2c1 [Example 97] | 34 nM | 82.7 nM | 2 nM |  |  |  | 
17 | COc1cnc2c(Cc3cnc(OCc4cc5n(n4)CCO[C@H]5C)c(OC)c3)ccnc2c1 (stereo in doubt) [Example 115] |  |  | 4 nM |  |  | 158 nM | 81.9 nM
18 | COc1ccc(COc2ccc(Cc3ccnc4ccccc34)cc2OC)cc1 [Example 3] | 89.2 nM |  |  |  |  |  | 
19 | COc1ccc(COc2ccc(Cc3ncnc4cc(OC)ccc34)cc2OC)cc1 [Example 5] | 263 nM | 310 nM | 21 nM |  |  |  | 
20 | COc1cnc2c(Cc3cnc(OCc4ccc(CN(C)C)cn4)c(OC)c3)ccnc2c1 [Example 85] | > 1000 nM | > 1000 nM | 110 nM |  |  |  | 
21 | COc1ccc(COc2ccc(Cc3ccnc4cnccc34)cc2OC)cc1 [Example 2, 4-(3-methoxy-4-((4-methoxybenzyl)oxy)benzyl)-1,7-naphthyridine] | 75 nM | 126 nM | 13.4 nM |  |  |  | 
22 | COc1cnc2c(Cc3ccn4nc(C5CCOCC5)cc4c3)ccnc2c1 [Example 158, 3-methoxy-8-((2-(tetrahydro-2H-pyran-4-yl)pyrazolo[1,5-a]pyridin-5-yl)methyl)-1,5-naphthyridine] | > 1000 nM | > 1000 nM | > 1000 nM |  |  |  | 
23 | COc1ccc2c(Cc3ccc(OCc4cnc(C)s4)c(OC)c3)ccnc2c1 [Example 35] | 449 nM | 392 nM | 16.1 nM |  |  |  | 
24 | COc1cnc2c(Cc3ccc4nc(N5CCC(OC)CC5)ncc4c3)ccnc2c1 [Example 152] | > 1000 nM | > 1000 nM | > 1000 nM |  |  |  | 
25 | COc1cnc2c(Cc3cnc(OCc4cnc(OC)nc4)c(OC)c3)ccnc2c1 [Example 50] | 481 nM | 312 nM | 15.2 nM |  |  |  | 
26 | COCc1cc(COc2ncc(Cc3ccnc4cc(OC)cnc34)cc2OC)nn1C [Example 96] | 234 nM | 190 nM | 16.2 nM |  |  |  | 
27 | COc1cnc2c(Cc3cnc(OCc4cc5cnccn5n4)c(OC)c3)ccnc2c1 [Example 145] | 229 nM | 178 nM | 39.1 nM |  |  |  | 

Row | SMILES | EC50 [1, 2] | EC50 (EOC2 cell; [3]) | IC50 (CSF-1R) | EC50 [1, 4] | EC50 (EOC2 cell; [5]) | EC50 ([1]; Ba/F3_CSF-1R cells, 72 hours treatment, read-out: CSF-1R BaF3 EC50) | EC50 (EOC2 cell; EOC2 cells, 72 hours treatment, read-out: ECO2 EC50)
28 | COc1ccc(COc2ncc(Cc3ccnc4cc(N5CCNCC5)cnc34)cc2OC)nc1 [Example 135] | 25.8 nM | 66.5 nM | 22.4 nM |  |  |  | 
29 | CCn1cc(COc2ncc(Cc3ccnc4cc(OC)cnc34)cc2OC)cn1 [Example 47] | > 1000 nM | > 1000 nM | 2 nM |  |  |  | 
30 | COc1ccc(COc2ccc(Cc3ccnc4cc(OC)cnc34)cc2OC)cc1 [Example 4] | 44.6 nM | 22.6 nM | 8.7 nM |  |  |  | 
31 | COc1cnc2c(Cc3cnc(OCc4cc5n(n4)[C@@H]4C[C@@H]4C5)c(OC)c3)ccnc2c1 [Example 120] | 43.7 nM | 18 nM | 1.9 nM |  |  |  | 
32 | COc1cnc2c(Cc3cnc(OCc4cnc5c(c4)CCC5OC)c(OC)c3)ccnc2c1 (centres unmarked) [Example 92] | 67.9 nM | 26 nM | 1.8 nM |  |  |  | 
33 | COc1cnc2c(Cc3cnc(OCc4cc(C(C)(C)OC)n(C)n4)c(OC)c3)ccnc2c1 [Example 113] | 348 nM | 143 nM | 12.3 nM |  |  |  | 
34 | COc1ccc(COc2ncc(Cc3ccnc4cc(N5CCC(OC)C5)cnc34)cc2OC)nc1 (centres unmarked) [Example 126] | 3.8 nM | 2.4 nM | 12.2 nM |  |  |  | 
35 | COc1ccc(COc2ncc(Cc3ccnc4cnccc34)cc2OC)nc1 [Example 19, 4-((5-methoxy-6-((5-methoxypyridin-2-yl)methoxy)pyridin-3-yl)methyl)-1,7-naphthyridine] | > 1000 nM |  | 47.6 nM |  |  |  | 
36 | COc1ccc(COc2ncc(Cc3ccnc4cc(-c5cccnc5)cnc34)cc2OC)nc1 [Example 140, 8-((5-methoxy-6-((5-methoxypyridin-2-yl)methoxy)pyridin-3-yl)methyl)-3-(pyridin-3-yl)-1,5-naphthyridine] |  | 10.6 nM | 9.4 nM | 9.8 nM |  |  | 
37 | COc1ccc(COc2ccc(Cc3ccnc4cc(OC)cnc34)cn2)nc1 [Example 151, 3-methoxy-8-((6-((5-methoxypyridin-2-yl)methoxy)pyridin-3-yl)methyl)-1,5-naphthyridine] |  |  | 22.6 nM | 412 nM | 280 nM |  | 
38 | COc1ccc2c(Cc3ccc(OCc4cc(C)nn4C)c(OC)c3)ccnc2c1 [Example 23] | 323 nM |  | 8 nM |  |  |  | 
39 | COc1cnc2c(Cc3cnc(OCc4cc5n(n4)CC4(CC4)C5)c(OC)c3)ccnc2c1 [Example 108] | 37.6 nM | 23.7 nM | 1.9 nM |  |  |  | 
40 | COc1cnc2c(Cc3cnc(OCc4cccc(N(C)C(C)=O)n4)c(OC)c3)ccnc2c1 [Example 123] | 128 nM | 77 nM | 52.5 nM |  |  |  | 
41 | COc1cnc2c(Cc3cnc(OCc4cnn(C(C)C)c4)c(OC)c3)ccnc2c1 [Example 43] | > 1000 nM | > 1000 nM | 2.8 nM |  |  |  | 
42 | COc1ccc2c(Cc3ccc(OCc4ccc5cnn(C)c5c4)c(OC)c3)ccnc2c1 [Example 12] | > 1000 nM |  | 299 nM |  |  |  | 
43 | COc1ccc(COc2ncc(Cc3ccnc4cc(N5CCOCC5)cnc34)cc2OC)nc1 [Example 119, 4-(8-((5-methoxy-6-((5-methoxypyridin-2-yl)methoxy)pyridin-3-yl)methyl)-1,5-naphthyridin-3-yl)morpholine] | 15.9 nM | 8 nM |  |  |  |  | 
44 | COc1ccc2c(Cc3ccc(OCc4ccc(=O)n(C)c4)c(OC)c3)ccnc2c1 [Example 26] | 283 nM |  | 5 nM |  |  |  | 
45 | COc1ccc(COc2ncc(Cc3ccnc4cc(OC)ccc34)cc2OC)nc1 [Example 13, 7-methoxy-4-((5-methoxy-6-((5-methoxypyridin-2-yl)methoxy)pyridin-3-yl)methyl)quinolone] | 176 nM | 151 nM |  |  |  |  | 
46 | COc1ccc2c(Cc3ccc(OCc4ccccn4)c(OC)c3)ccnc2c1 [Example 9] | 901 nM |  | 169 nM |  |  |  | 
47 | COc1cnc2c(Cc3cnc(OCc4ccc(Cl)cn4)c(OC)c3)ccnc2c1 [Example 58] | 93.9 nM | 42.9 nM |  |  |  |  | 
48 | COc1ccc2c(Cc3ccc(OCc4nc5ccccc5n4C)c(OC)c3)ccnc2c1 [Example 11] | > 1000 nM |  | 149 nM |  |  |  | 
49 | COc1ccc2c(Cc3ccc(OCc4ccncc4)c(OC)c3)ccnc2c1 [Example 10] | > 1000 nM |  | 118 nM |  |  |  | 
50 | COc1cccc(COc2ccc(Cc3ccnc4cc(OC)ccc34)cc2OC)c1 [Example 28] | 356 nM |  | 25.7 nM |  |  |  | 
51 | COc1ccc2c(Cc3ccc(OCc4ccccc4OC)c(OC)c3)ccnc2c1 [Example 29] | 873 nM |  | 73.9 nM |  |  |  | 
52 | COc1cnc2c(Cc3cnc(OCc4cnn(C)c4)c(OC)c3)ccnc2c1 [Example 37] | > 1000 nM | > 1000 nM |  |  |  |  | 
53 | COc1ccc(COc2ncc(Cc3ccnc4cncnc34)cc2OC)nc1 [Example 22, 8-((5-methoxy-6-((5-methoxypyridin-2-yl)methoxy)pyridin-3-yl)methyl)pyrido[3,2-d]pyrimidine] | > 1000 nM |  | 64 nM |  |  |  | 
